{"source": "ChEMBL document CHEMBL5096219", "about": "“Design, synthesis and biological evaluation of novel pyrazinone derivatives as PI3K/HDAC dual inhibitors” (Bioorg Med Chem, 2022)", "key": {"MV4-11 [1]": {"tested_on": "MV4-11", "experiment": "Induction of apoptosis in human MV4-11 cells assessed as total apoptotic cells at 450 nM incubated for 48 hrs by Annexin V-FITC/PI staining based flow cytometry (reference value: 2.99%)", "type": "functional"}, "[2]": {"molecular_target": "T1, Protein deacetylase HDAC6 (Homo sapiens, UniProt Q9UBN7)", "T1 sequence (Q9UBN7 whole entry)": "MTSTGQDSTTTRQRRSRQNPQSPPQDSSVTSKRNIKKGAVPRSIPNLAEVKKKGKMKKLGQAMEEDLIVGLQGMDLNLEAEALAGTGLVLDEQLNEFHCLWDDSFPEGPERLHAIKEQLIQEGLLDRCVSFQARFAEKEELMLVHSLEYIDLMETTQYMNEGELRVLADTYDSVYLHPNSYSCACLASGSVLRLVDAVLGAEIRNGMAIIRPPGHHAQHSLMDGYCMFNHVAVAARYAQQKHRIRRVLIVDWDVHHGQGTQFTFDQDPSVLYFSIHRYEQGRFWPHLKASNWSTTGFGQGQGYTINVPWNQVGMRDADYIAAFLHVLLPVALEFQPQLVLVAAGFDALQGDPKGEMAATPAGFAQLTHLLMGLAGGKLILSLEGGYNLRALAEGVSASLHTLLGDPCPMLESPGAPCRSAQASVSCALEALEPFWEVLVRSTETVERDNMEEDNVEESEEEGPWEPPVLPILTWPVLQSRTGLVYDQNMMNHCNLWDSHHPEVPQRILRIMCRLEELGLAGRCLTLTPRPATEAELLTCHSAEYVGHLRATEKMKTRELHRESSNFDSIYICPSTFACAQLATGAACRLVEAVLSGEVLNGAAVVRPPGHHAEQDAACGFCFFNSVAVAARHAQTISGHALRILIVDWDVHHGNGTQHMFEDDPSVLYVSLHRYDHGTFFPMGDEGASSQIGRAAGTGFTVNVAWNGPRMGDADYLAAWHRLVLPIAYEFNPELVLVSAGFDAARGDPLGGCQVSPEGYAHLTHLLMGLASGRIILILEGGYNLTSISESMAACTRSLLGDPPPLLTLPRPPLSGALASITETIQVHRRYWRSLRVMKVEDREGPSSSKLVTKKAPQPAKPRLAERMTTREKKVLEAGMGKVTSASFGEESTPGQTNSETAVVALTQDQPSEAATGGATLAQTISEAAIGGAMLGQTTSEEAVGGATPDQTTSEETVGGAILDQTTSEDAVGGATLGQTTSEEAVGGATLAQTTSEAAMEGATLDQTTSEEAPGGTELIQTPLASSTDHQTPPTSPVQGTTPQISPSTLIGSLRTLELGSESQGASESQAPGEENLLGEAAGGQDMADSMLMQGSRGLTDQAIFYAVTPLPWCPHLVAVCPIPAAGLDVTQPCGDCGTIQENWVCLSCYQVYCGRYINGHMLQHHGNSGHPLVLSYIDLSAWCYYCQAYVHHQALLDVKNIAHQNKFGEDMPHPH", "experiment": "Inhibition of HDAC6 (unknown origin)"}, "A549": {"tested_on": "A549", "experiment": "Antiproliferative activity against human A549 cells assessed as inhibition of cell proliferation incubated for 72 hrs by MTT assay", "type": "functional, cell-based", "conditions": "A549, 72 h"}, "MV4-11 [3]": {"tested_on": "MV4-11", "experiment": "Induction of cell cycle arrest in human MV4-11 cells assessed as accumulation of cells at S phase at 450 nM incubated for 48 hrs by […]PI staining based flow cytometry (reference value: 45.5%)", "type": "functional"}, "MV4-11 [4]": {"tested_on": "MV4-11", "experiment": "Induction of cell cycle arrest in human MV4-11 cells assessed as accumulation of cells at G2/M phase at 450 nM incubated for 48 hrs by […]PI staining based flow cytometry (reference value: 11.5%)", "type": "functional"}, "MV4-11 [5]": {"tested_on": "MV4-11", "experiment": "Induction of apoptosis in human MV4-11 cells assessed as viable cells at 50 nM incubated for 48 hrs by Annexin V-FITC/PI staining based flow cytometry (reference value: 96.5%)", "type": "functional", "conditions": "read-out: Activity"}, "MV4-11 [6]": {"tested_on": "MV4-11", "experiment": "Induction of cell cycle arrest in human MV4-11 cells assessed as accumulation of cells at G0/G1 phase at 450 nM incubated for 48 hrs by […]PI staining based flow cytometry (reference value: 33.1%)", "type": "functional"}, "MV4-11 [7]": {"tested_on": "MV4-11", "experiment": "Induction of cell cycle arrest in human MV4-11 cells assessed as accumulation of cells at G0/G1 phase at 150 nM incubated for 48 hrs by […]PI staining based flow cytometry (reference value: 33.1%)", "type": "functional"}, "MV4-11 [8]": {"tested_on": "MV4-11", "experiment": "Inhibition of PI3K in human MV4-11 cells assessed as downregulation of phosphorylated AKT expression incubated for 24 hrs by western blot analysis", "type": "cell-based", "conditions": "dose 0.05-0.45 µM, DDE = dose-dependent effect"}, "MV4-11 [9]": {"tested_on": "MV4-11", "experiment": "Induction of cell cycle arrest in human MV4-11 cells assessed as accumulation of cells at G0/G1 phase at 1350 nM incubated for 48 hrs by […]PI staining based flow cytometry (reference value: 33.1%)", "type": "functional"}, "MV4-11 [10]": {"tested_on": "MV4-11", "experiment": "Induction of apoptosis in human MV4-11 cells assessed as necrotic cells at 150 nM incubated for 48 hrs by Annexin V-FITC/PI staining based flow cytometry (reference value: 0.51%)", "type": "functional"}, "MV4-11 [11]": {"tested_on": "MV4-11", "experiment": "Induction of apoptosis in human MV4-11 cells assessed as late apoptotic cells at 450 nM incubated for 48 hrs by Annexin V-FITC/PI staining based flow cytometry (reference value: 2.04%)", "type": "functional"}, "[12]": {"molecular_target": "T2, Protein deacetylase HDAC6 (Homo sapiens) (UniProt Q9UBN7)", "T2 sequence (whole entry)": "T1 sequence (Q9UBN7 whole entry)", "experiment": "Inhibition of HDAC6 in human MV4-11 cells assessed as increase in acetylated alpha-tubulin level incubated for 24 hrs by western blot analysis", "type": "cell-based", "conditions": "dose 0.05-0.45 µM, DDE = dose-dependent effect"}, "MV4-11 [13]": {"tested_on": "MV4-11", "experiment": "Induction of cell cycle arrest in human MV4-11 cells assessed as accumulation of cells at G2/M phase at 1350 nM incubated for 48 hrs by […]PI staining based flow cytometry (reference value: 11.5%)", "type": "functional"}, "K562": {"tested_on": "K562", "experiment": "cells", "type": "functional, cell-based", "conditions": "Homo sapiens, K562, 72 h", "description": "Antiproliferative activity against human K562 cells assessed as inhibition of cell proliferation incubated for 72 hrs by CCK8 assay"}, "MV4-11 [14]": {"tested_on": "MV4-11", "experiment": "Induction of cell cycle arrest in human MV4-11 cells assessed as accumulation of cells at G0/G1 phase at 50 nM incubated for 48 hrs by […]PI staining based flow cytometry (reference value: 33.1%)", "type": "functional"}, "HL-60": {"tested_on": "HL-60", "experiment": "cells", "type": "functional, cell-based", "conditions": "Homo sapiens, HL-60, 72 h", "description": "Antiproliferative activity against human HL-60 cells assessed as inhibition of cell proliferation incubated for 72 hrs by CCK8 assay"}, "[15]": {"molecular_target": "Phosphatidylinositol 4,5-bisphosphate 3-kinase catalytic subunit alpha isoform (Homo sapiens, UniProt P42336)", "sequence (P42336 whole entry, canonical isoform)": "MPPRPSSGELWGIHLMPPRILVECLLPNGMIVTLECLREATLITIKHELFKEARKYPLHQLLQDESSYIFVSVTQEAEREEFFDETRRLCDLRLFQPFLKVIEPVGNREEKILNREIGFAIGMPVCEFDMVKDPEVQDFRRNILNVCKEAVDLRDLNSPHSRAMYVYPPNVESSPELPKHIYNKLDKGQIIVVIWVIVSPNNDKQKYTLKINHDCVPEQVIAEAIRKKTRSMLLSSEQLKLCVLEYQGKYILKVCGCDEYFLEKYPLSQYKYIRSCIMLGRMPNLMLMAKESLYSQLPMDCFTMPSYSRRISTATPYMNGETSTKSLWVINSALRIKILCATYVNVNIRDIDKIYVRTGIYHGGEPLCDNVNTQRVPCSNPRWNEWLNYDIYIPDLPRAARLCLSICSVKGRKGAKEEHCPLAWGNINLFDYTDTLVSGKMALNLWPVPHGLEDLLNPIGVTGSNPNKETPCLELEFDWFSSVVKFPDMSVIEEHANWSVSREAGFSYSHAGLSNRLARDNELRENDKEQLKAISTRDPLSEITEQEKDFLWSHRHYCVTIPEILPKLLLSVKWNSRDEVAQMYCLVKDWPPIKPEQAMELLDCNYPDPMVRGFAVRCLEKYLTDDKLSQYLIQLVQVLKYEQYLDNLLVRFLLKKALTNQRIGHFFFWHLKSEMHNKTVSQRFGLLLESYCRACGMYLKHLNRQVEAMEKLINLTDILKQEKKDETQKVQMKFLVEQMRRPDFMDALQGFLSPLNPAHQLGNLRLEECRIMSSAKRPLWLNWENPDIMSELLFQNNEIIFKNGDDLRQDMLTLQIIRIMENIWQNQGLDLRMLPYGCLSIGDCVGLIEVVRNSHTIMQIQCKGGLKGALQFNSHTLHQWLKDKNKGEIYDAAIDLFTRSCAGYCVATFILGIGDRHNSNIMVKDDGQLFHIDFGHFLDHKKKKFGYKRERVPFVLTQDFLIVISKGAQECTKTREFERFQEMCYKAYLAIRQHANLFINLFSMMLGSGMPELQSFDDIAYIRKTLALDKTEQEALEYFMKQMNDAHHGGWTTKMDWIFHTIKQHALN", "experiment": "Inhibition of PI3Kalpha (unknown origin) by mobility shift assay"}, "MV4-11 [16]": {"tested_on": "MV4-11", "experiment": "Induction of cell cycle arrest in human MV4-11 cells assessed as accumulation of cells at S phase at 150 nM incubated for 48 hrs by […]PI staining based flow cytometry (reference value: 45.5%)", "type": "functional"}, "MV4-11 [17]": {"tested_on": "MV4-11", "experiment": "Induction of apoptosis in human MV4-11 cells assessed as late apoptotic cells at 50 nM incubated for 48 hrs by Annexin V-FITC/PI staining based flow cytometry (reference value: 2.04%)", "type": "functional"}, "HepG2": {"tested_on": "HepG2", "experiment": "Antiproliferative activity against human HepG2 cells assessed as inhibition of cell proliferation incubated for 72 hrs by MTT assay", "type": "functional, cell-based", "conditions": "HepG2, 72 h"}, "MV4-11 [18]": {"tested_on": "MV4-11", "experiment": "cells", "type": "functional, cell-based", "conditions": "Homo sapiens, MV4-11, 72 h", "description": "Antiproliferative activity against human MV4-11 cells assessed as inhibition of cell proliferation incubated for 72 hrs by CCK8 assay"}}, "data": [{"smiles": "O=C(NO)c1ccc(Cn2cc(-c3cccc4[nH]ncc34)nc(N3CCOCC3)c2=O)cc1", "values": [{"measurement": "Activity", "setting": "MV4-11 [1]", "result": 80.7, "unit": "%"}, {"measurement": "IC50", "setting": "[2]", "result": 4.5, "unit": "nM"}, {"measurement": "IC50", "setting": "A549", "result": 11000, "unit": "nM"}, {"measurement": "Activity", "setting": "MV4-11 [3]", "result": 34.9, "unit": "%"}, {"measurement": "Activity", "setting": "MV4-11 [4]", "result": 38.3, "unit": "%"}, {"measurement": "viability at 0.05 µM", "setting": "MV4-11 [5]", "result": 92.5, "unit": "%"}, {"measurement": "Activity", "setting": "MV4-11 [6]", "result": 15.1, "unit": "%"}, {"measurement": "Activity", "setting": "MV4-11 [7]", "result": 25.6, "unit": "%"}, {"measurement": "inhibition", "setting": "MV4-11 [8]", "result": "Dde"}, {"measurement": "Activity", "setting": "MV4-11 [9]", "result": 15.2, "unit": "%"}, {"measurement": "Activity", "setting": "MV4-11 [10]", "result": 3.45, "unit": "%"}, {"measurement": "Activity", "setting": "MV4-11 [11]", "result": 46.1, "unit": "%"}, {"measurement": "inhibition", "setting": "[12]", "result": "Dde"}, {"measurement": "Activity", "setting": "MV4-11 [13]", "result": 51.8, "unit": "%"}, {"measurement": "IC50", "setting": "K562", "result": 120, "unit": "nM"}, {"measurement": "Activity", "setting": "MV4-11 [14]", "result": 28.4, "unit": "%"}, {"measurement": "IC50", "setting": "HL-60", "result": 350, "unit": "nM"}, {"measurement": "IC50", "setting": "[15]", "result": 373, "unit": "nM"}, {"measurement": "Activity", "setting": "MV4-11 [16]", "result": 31, "unit": "%"}, {"measurement": "Activity", "setting": "MV4-11 [17]", "result": 3.67, "unit": "%"}, {"measurement": "IC50", "setting": "HepG2", "result": 1190, "unit": "nM"}, {"measurement": "IC50", "setting": "MV4-11 [18]", "result": 90, "unit": "nM"}]}]}
